# Assay results taken from the supplement of paper PMC10307832.
# What was measured:
# Test in all cases: relative viability (nuclei count vs DMSO), 5 days (fraction); higher = more cells survive
# [1] = compound: CCc1cnn2c(NCc3ccc[n+]([O-])c3)cc(N3CCCC[C@H]3CCO)nc12 [Dinaciclib] + CC(=O)Nc1cccc(-n2c(=O)n(C3CC3)c(=O)c3c(Nc4ccc(I)cc4F)n(C)c(=O)c(C)c32)c1 [Trametinib] (partner 0.02 µM)
# Outline: (§1)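 Lung cancer cell lines, seeded in 1536-well plates, were treated the following day by pin tool with a single drug or with five library-drug doses (not always all listed) in √10 steps on top of a fixed anchor-drug dose. Cells were fixed and nuclei stained in one step after 5 days, and nuclei were counted. Relative viability is the nuclei count for treated wells divided by that for vehicle wells, reported as medians of duplicate plates.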
# [2] = compound: CCc1cnn2c(NCc3ccc[n+]([O-])c3)cc(N3CCCC[C@H]3CCO)nc12 [Dinaciclib] + O=C(c1cc(Cc2n[nH]c(=O)c3ccccc23)ccc1F)N1CCN(C(=O)C2CC2)CC1 [Olaparib] (partner 8 µM)
# Outline: as §1
# [3] = compound: CCc1cnn2c(NCc3ccc[n+]([O-])c3)cc(N3CCCC[C@H]3CCO)nc12 [Dinaciclib] + Cc1cc(Nc2cc(N3CCN(C)CC3)nc(Sc3ccc(NC(=O)C4CC4)cc3)n2)n[nH]1 [Tozasertib] (partner 0.1 µM)
# Outline: as §1
# [4] = compound: CCc1cnn2c(NCc3ccc[n+]([O-])c3)cc(N3CCCC[C@H]3CCO)nc12 [Dinaciclib] + CC1(C)CCC(c2ccc(Cl)cc2)=C(CN2CCN(c3ccc(C(=O)NS(=O)(=O)c4ccc(N[C@H](CCN5CCOCC5)CSc5ccccc5)c(S(=O)(=O)C(F)(F)F)c4)cc3)CC2)C1 [Navitoclax] (partner 0.5 µM)
# Outline: as §1
# [5] = compound: CCc1cnn2c(NCc3ccc[n+]([O-])c3)cc(N3CCCC[C@H]3CCO)nc12 [Dinaciclib] + COc1cccc2cc(-c3nc([C@H]4CC[C@H](C(=O)O)CC4)n4ncnc(N)c34)[nH]c12 [OSI-027] (partner 0.5 µM)
# Outline: as §1
Cell Line,relative viability ([1]; first compound 0.009487 µM),relative viability ([1]; first compound 0.03 µM),relative viability ([1]; first compound 0.09487 µM),relative viability ([1]; first compound 0.3 µM),relative viability ([2]; first compound 0.009487 µM),relative viability ([2]; first compound 0.03 µM),relative viability ([2]; first compound 0.09487 µM),relative viability ([2]; first compound 0.3 µM),relative viability ([3]; first compound 0.009487 µM),relative viability ([3]; first compound 0.03 µM),relative viability ([3]; first compound 0.09487 µM),relative viability ([3]; first compound 0.3 µM),relative viability ([4]; first compound 0.009487 µM),relative viability ([4]; first compound 0.03 µM),relative viability ([4]; first compound 0.09487 µM),relative viability ([4]; first compound 0.3 µM),relative viability ([5]; first compound 0.009487 µM),relative viability ([5]; first compound 0.03 µM),relative viability ([5]; first compound 0.09487 µM),relative viability ([5]; first compound 0.3 µM)
NCI-H2405,0.676,0.236,0.233,0.203,0.654,0.242,0.225,0.23,0.619,0.2,0.213,0.208,0.795,0.0802,0.0747,0.0589,0.625,0.409,0.226,0.198
NCI-H3122,0.292,0.102,0.0935,0.0911,0.579,0.0996,0.0974,0.0928,0.169,0.091,0.0926,0.0829,0.973,0.156,0.119,0.142,0.407,0.108,0.0984,0.114
PC-3 [JPC-3],0.737,0.657,0.334,0.321,1.09,0.57,0.321,0.288,0.889,0.745,0.274,0.215,0.764,0.713,0.394,0.2,0.764,0.693,0.249,0.209
PC-14,0.412,0.0589,0.0476,0.0471,0.143,0.0629,0.0502,0.0532,0.454,0.0566,0.0448,0.038,0.78,0.0911,0.0667,0.0708,0.66,0.0841,0.0393,0.0423
RERF-LC-KJ,0.753,0.22,0.143,0.152,0.466,0.166,0.155,0.154,0.45,0.18,0.179,0.167,0.906,0.172,0.122,0.169,0.461,0.177,0.185,0.182
SK-LU-1,0.517,0.176,0.205,0.186,0.381,0.173,0.165,0.16,0.329,0.132,0.131,0.119,0.746,0.0883,0.0998,0.11,0.425,0.116,0.145,0.112
SK-MES-1,0.536,0.175,0.192,0.178,0.333,0.16,0.139,0.139,0.777,0.157,0.156,0.139,1.26,0.131,0.114,0.119,0.559,0.13,0.136,0.149
SW 1573,0.404,0.0877,0.0832,0.0755,0.224,0.0736,0.062,0.0659,0.141,0.0738,0.0542,0.0806,0.919,0.0461,0.0459,0.0437,0.372,0.0612,0.0644,0.0645
UMC-11,0.253,0.172,0.132,0.146,0.176,0.157,0.146,0.165,0.2,0.215,0.202,0.173,0.133,0.103,0.113,0.102,0.267,0.203,0.177,0.153
